This note sets out measurements from US20090124633A1, “N-OXIDES OF HETEROCYCLIC SUBSTITUTED BISARYLUREAS FOR TREATING KINASE-MEDIATED DISEASES” (priority 2006, published 2009).

Data set [1] can be described thus: Stability against oxygen in air. The data set is classed as physicochemical. The settings on record: dissolved either in DMSO/water or in acetic acid/water, stirred on air for more than a week. The source says: Stability Against Oxygen in Air
The compounds • 4-{4-[3-(2-[1,2,4]Triazol-1-yl-5-trifluoromethyl-phenyl)-ureido]-phenoxy}-pyridine-2-carboxylic acid methylamide, • 4-{4-[3-(2-[1,2,3]Triazol-1-yl-5-trifluoromethyl-phenyl)-ureido]-phenoxy}-pyridine-2-carboxylic acid methylamide, 525946 • 4-{4-[3-(2-Imidazol-1-yl-5-trifluoromethyl-phenyl)-ureido]-phenoxy}-pyridine-2-carboxylic acid methylamide, and • 1-[4-(Pyridin-4-yloxy)-phenyl]-3-(2-[1,2,4]triazol-1-yl-5-trifluoromethyl-phenyl)-urea, respectively, were dissolved either in DMSO/water or in acetic acid/water and stirred on air for more than a week.

Data set [2] addresses T1, Tie-2 (Homo sapiens, UniProt Q02763).
T1 construct: The catalytic sections of the corresponding tyrosine kinases are preferably expressed as GST fusion proteins; GST
The data set can be described thus: flashplate kinase assay, phosphorylation of poly-Glu-Tyr (4:1) by Tie-2. Format: biochemical. Particulars: read-out: TIE2 [IC50]. The protocol: (§1) The biological activity of N-oxide compounds according the invention are tested in one or more standard kinase assay systems as described in the art. Preferably, the compounds according the invention are tested in a kinase assay as described below, or in analogous manner thereof:
(§2) In this assay the inhibitory action of the compounds according to the invention on the phosphorylation of the substrates Biotin-poly-Glu-Tyr (4:1) by VGFR2 (KDR) or poly-Glu-Tyr (4:1) by Tie-2, respectively, is tested. In the wells of a streptavidin-coated microtiter flashplate, VEGFR2, or a microtiter flashplate, Tie-2, respectively, phosphorylate the substrates in the presence of ATPyS and small amounts of radioactive ^33P-ATP. Phosphorylated substrates bind during enzymatic reaction to the walls of the wells. The phosphorylation reaction is stopped by addition of a stopping reagent, the liquid is removed from the wells and the wells are rinsed. The amount of radioactivity incorporated into the substrate bound to the well is then measured. The reaction is done in presence of different concentrations of the compound and in absence of the compound. The inhibitory action of the compounds according to the invention is determined on the basis of the ratio of radioactivity found in the presence of a compound according to the invention in comparison to the radioactivity found in the enzymatic reaction in the absence of a compound according to the invention. The catalytic sections of the corresponding tyrosine kinases are preferably expressed as GST fusion proteins.
(§3) 100 μL of the compound to be tested are applied to a well (starting concentration: 1E-3 mol/L in 100% DMSO); the dilution for the determination of the IC 50 values is performed on a BiomekFX robot in 10 steps (range of concentration is 1E-5 to 1E-10 mol/L in the assay, i.e. 1E-5, 1E-6, 3E-7, 1E-7, 3E-8, 1E-8, 3E-9, 1E-9, 3E-10, 1E-10 mol/L).

Data set [3] concerns the target T2, VGFR2 (KDR) (Homo sapiens, UniProt P35968).
T2 construct: The catalytic sections of the corresponding tyrosine kinases are preferably expressed as GST fusion proteins; GST
Put plainly: flashplate kinase assay, phosphorylation of Biotin-poly-Glu-Tyr (4:1) by VGFR2 (KDR). The data set is classed as biochemical. The protocol:
as §1, §2, §3

As usually defined, the IC50 is the point on the concentration scale where inhibition reaches its midpoint.

T2 sequence (P35968 834-1162 limits assumed): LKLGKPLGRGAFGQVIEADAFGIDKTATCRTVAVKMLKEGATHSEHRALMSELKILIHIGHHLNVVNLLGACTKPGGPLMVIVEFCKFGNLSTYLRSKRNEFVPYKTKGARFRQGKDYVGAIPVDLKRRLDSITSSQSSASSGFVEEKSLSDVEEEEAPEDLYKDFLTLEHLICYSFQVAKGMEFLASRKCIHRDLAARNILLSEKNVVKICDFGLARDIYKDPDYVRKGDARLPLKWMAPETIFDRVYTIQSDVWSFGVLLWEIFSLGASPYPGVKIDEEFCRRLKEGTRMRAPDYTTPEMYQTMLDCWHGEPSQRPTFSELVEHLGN
T1 sequence (Q02763 824-1096 limits assumed): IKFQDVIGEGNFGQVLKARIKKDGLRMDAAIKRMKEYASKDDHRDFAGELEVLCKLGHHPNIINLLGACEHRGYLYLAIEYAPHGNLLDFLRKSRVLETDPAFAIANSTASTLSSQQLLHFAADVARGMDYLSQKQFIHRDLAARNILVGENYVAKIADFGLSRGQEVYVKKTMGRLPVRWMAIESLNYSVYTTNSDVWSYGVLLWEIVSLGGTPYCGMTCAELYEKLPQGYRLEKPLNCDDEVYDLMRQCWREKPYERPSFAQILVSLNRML

Consider `CNC(=O)c1cc(Oc2ccc(NC(=O)Nc3cc(C(F)(F)F)ccc3-n3cncn3)cc2)ccn1` [4-{4-[3-(2-[1,2,4]Triazol-1-yl-5-trifluoromethyl-phenyl)-ureido]-phenoxy}-pyridine-2-carboxylic acid methylamide], for which the “N-oxide formation on air” value in data set [1] is reported as “No N-oxide formation could be detected”.

Regarding `CNC(=O)c1cc(Oc2ccc(NC(=O)Nc3cc(C(F)(F)F)ccc3-n3ccnn3)cc2)cc[n+]1[O-]` [Compound 12, 1-Oxy-4-{4-[3-(2-[1,2,3]triazol-1-yl-5-trifluoromethyl-phenyl)-ureido]-phenoxy}-pyridine-2-carboxylic acid methylamide], the figures for the 50% inhibitory concentration (IC50) in data set [2] and in data set [3] were 30 nM and 49 nM, respectively.

For `CNC(=O)c1cc(Oc2ccc(NC(=O)Nc3cc(C(F)(F)F)ccc3-n3cncn3)cc2)cc[n+]1[O-]` [Compound 11, 1-Oxy-4-{4-[3-(2-[1,2,4]triazol-1-yl-5-trifluoromethyl-phenyl)-ureido]-phenoxy}-pyridine-2-carboxylic acid methylamide], the 50% inhibitory concentration (IC50) came out at 52 nM in data set [2] and 14 nM in data set [3].

Regarding `CNC(=O)c1cc(Oc2ccc(NC(=O)Nc3cc(C(F)(F)F)ccc3-n3ccnc3)cc2)cc[n+]1[O-]` [Compound 13, 4-{4-[3-(2-Imidazol-1-yl-5-trifluoromethyl-phenyl)-ureido]-phenoxy}-1-oxy-pyridine-2-carboxylic acid methylamide], the IC50 in data set [2] amounted to 49 nM; in data set [3], 56 nM.

On to `CNC(=O)c1cc(Oc2ccc(NC(=O)Nc3cc(C(F)(F)F)ccc3-n3ccnc3)cc2)ccn1` [4-{4-[3-(2-Imidazol-1-yl-5-trifluoromethyl-phenyl)-ureido]-phenoxy}-pyridine-2-carboxylic acid methylamide], for which the “N-oxide formation on air” value in data set [1] is recorded as “No N-oxide formation could be detected”.

With `O=C(Nc1ccc(Oc2ccncc2)cc1)Nc1cc(C(F)(F)F)ccc1-n1cncn1` [1-[4-(Pyridin-4-yloxy)-phenyl]-3-(2-[1,2,4]triazol-1-yl-5-trifluoromethyl-phenyl)-urea], the “N-oxide formation on air” value in data set [1] is reported as “No N-oxide formation could be detected”.

Take `O=C(Nc1ccc(Oc2cc[n+]([O-])cc2)cc1)Nc1cc(C(F)(F)F)ccc1-n1cncn1` [Compound 14, 1-[4-(1-Oxy-pyridin-4-yloxy)-phenyl]-3-(2-[1,2,4]triazol-1-yl-5-trifluoromethyl-phenyl)-urea]: the figures for the half-maximal inhibitory concentration (IC50) in data set [2] and in data set [3] were 740 nM and 1200 nM, respectively.

`CNC(=O)c1cc(Oc2ccc(NC(=O)Nc3cc(C(F)(F)F)ccc3-n3ccnn3)cc2)ccn1` [4-{4-[3-(2-[1,2,3]Triazol-1-yl-5-trifluoromethyl-phenyl)-ureido]-phenoxy}-pyridine-2-carboxylic acid methylamide]: the “N-oxide formation on air” value in data set [1] is on record as “No N-oxide formation could be detected”.
